{
  "source": "patent US20220168295A1",
  "about": "“RIMEGEPANT FOR CGRP RELATED DISORDERS” (Biohaven Pharmaceutical Ireland DAC, priority 2018, published 2022)",
  "key": {"[1]": {"tested_on": "subjects with Acute Migraines", "experiment": "Study 302 (BHV3000-302) Phase 3 placebo-controlled trial, rimegepant 75 mg tablet, acute treatment of migraine: efficacy and safety", "assay_type": "in vivo, human", "experimental": "Clinical Trial—BHV3000-302: Phase 3: Double-Blind, Randomized, Placebo-Controlled, Safety and Efficacy Trial of BHV-3000 (Rimegepant) for the Acute Treatment of Migraine (ClinicalTrials.gov Identifier: NCT03237845) A phase 3 clinical study was conducted with 1503 participants, as follows. The purpose of this study is to compare the efficacy of BHV-3000 (rimegepant) versus placebo in subjects with Acute Migraines • Study Type: Interventional (Clinical Trial) • Actual Enrollment: 1503 participants • Allocation: Randomized • Intervention Model: Parallel Assignment • Intervention Model Description: Double-blind to Sponsor, Investigator and Subject • Masking: Triple (Participant, Care Provider, Investigator) • Masking Description: Double-blind to Sponsor, Investigator and Subject • Primary Purpose: Treatment • Official Title: BHV3000-302: Phase 3: Double-Blind, Randomized, Placebo-Controlled, Safety and Efficacy Trial of BHV-3000 (Rimegepant) for the Acute Treatment of Migraine • Actual Study Start Date: Jul. 26, 2017 • Primary Completion Date: Jan. 25, 2018 • Study Completion Date: Jan. 31, 2018 [table] • 1. Pain Freedom of rimegepant (75 mg tablet) compared with placebo in the acute treatment of migraine will be measured using the number of evaluable subjects that report no pain at 2 hours post-dose. [Time Frame: Two hours post dose] • Pain will be measured on a 4 point Likert scale (0=none, 1=mild, 2=moderate, 3=severe) • 2. Freedom from the most bothersome symptom (MBS) of rimegepant (75 mg tablet) compared with placebo will be measured using the number of evaluable subjects that report the absence of their MBS at 2 hours post-dose. [Time Frame: Two hours post dose] • The MBS (nausea, phonophobia or photophobia) will measured using a binary scale (0=absent, 1=present). • 1. […] [Time Frame: 2 hours −24 hours post-dose] • Sustained Pain Freedom as measured by a 4 point numeric rating scale (None, Mild, Moderate, Severe) • 2. Rimegepant (75 mg tablet) compared to placebo by tabulating the number of subjects that report the absence of photophobia at 2 hours post-dose in the subset of subjects that reported the presence of photophobia at headache baseline. [Time Frame: 2 hours post-dose] • Freedom from Photophobia • 3. Rimegepant (75 mg tablet) compared to placebo by tabulating the number of subjects that report the absence of phonophobia at 2 hours post-dose in the subset of subjects that reported the presence of phonophobia at headache baseline. [Time Frame: 2 hours post-dose] • Freedom from Phonophobia • 4. To measure rimegepant (75 mg tablet) compared to placebo on Pain Relief, at 2 hours post-dose, that report a pain level of moderate or severe at baseline and then report a pain level of none or mild. [Time Frame: 2 hours post-dose] • Pain Relief as measured by a 4 point numeric rating scale (None, Mild, Moderate, Severe) • 5. Freedom from Nausea will by tabulating the number of subjects that report the absence of nausea at 2 hours post-dose in the subset of subjects that reported the presence of nausea at headache baseline. [Time Frame: 2 hours post-dose] • Freedom from Nausea • 6. To measure rimegepant (75 mg tablet) compared to placebo on the probability of requiring rescue medication will be assessed using the number of subjects that take rescue medication within […] administration of study medication (BHV3000 or placebo). [Time Frame: up to 24 hours post-dose] • Requiring Rescue Medication • 7. […] [Time Frame: 2 hours-48 hours post-dose] • Sustained Pain Freedom as measured by a 4 point numeric rating scale (None, Mild, Moderate, Severe) • 8. […] [Time Frame: 2 hours-24 hours post-dose] • Sustained Pain Relief as measured by a 4 point numeric rating scale (None, Mild, Moderate, Severe) • 9. […] [Time Frame: 2 hours-48 hours post-dose] • Sustained Pain Relief as measured by a 4 point numeric rating scale (None, Mild, Moderate, Severe) • 10. […]"}, "[2]": {"experiment": "Pooled liver function test (LFT) profile, Study 301 and Study 302", "assay_type": "in vivo, human", "details": "pooled Study 301 and 302; n = 1089", "experimental": "(§1) In a double-blind, randomized, placebo-controlled, multicenter study (Study 301, NCT03235479) adults 3.8 years of age with at least a 1-year history of ICHD 3-beta migraine were eligible to participate. Following a 3- to 28-day screening period, subjects were randomized to receive rimegepant 75 mg or matching placebo and instructed to treat a single migraine attack with 1 dose of the blinded study drug (rimegepant or placebo) when headache pain reached moderate or severe intensity. The coprimary endpoints were pain freedom at 2 hours postdose and freedom from the most bothersome symptom (MBS) at 2 hours postdose. Safety assessments included adverse events (AEs), ECGs, vital signs, physical measurements, and routine laboratory tests, including assessment of liver function. Unless stated otherwise, values presented are mean±SD.\nas §1, with “302, NCT03237845)” for “301, NCT03235479)”, “≥18” for “3.8”"}},
  "data": [
    {"smiles": "N[C@@H]1c2cccnc2[C@H](OC(=O)N2CCC(n3c(=O)[nH]c4ncccc43)CC2)CC[C@H]1c1cccc(F)c1F", "note": "[Rimegepant, [(5S,6S,9R)-5-amino-6-(2,3-difluorophenyl)-6,7,8,9-tetrahydro-5H-cyclohepta[b]pyridin-9-yl] 4-(2-oxo-3H-imidazo[4,5-b]pyridin-1-yl)piperidine-1-carboxylate]", "values": [
      {"measurement": "SAEs related to the study drug", "setting": "[1]", "value": "No SAEs were determined to be related to the study drug"},
      {"measurement": "Transaminase level greater than 3 times ULN, subjects", "setting": "[1]", "value": "No subject"},
      {"measurement": "Adverse event urinary tract infection, incidence", "setting": "[1]; 8/543", "value": 1.5, "unit": "%"},
      {"measurement": "Adverse event nausea, incidence", "setting": "[1]; 10/543", "value": 1.8, "unit": "%"},
      {"measurement": "Serum ALT or AST levels greater than ULN, subjects", "setting": "[1]; 13/543", "value": 2.4, "unit": "%"},
      {"measurement": "Proportion of patients achieving normal function at 2 hours (functional disability) versus placebo", "setting": "[1]; P<0.0001", "value": "greater proportion"},
      {"measurement": "Serious AEs (SAEs), number of subjects", "setting": "[1]; back pain", "value": 1, "unit": "subject"},
      {"measurement": "ALT >3x ULN, subjects n (%)", "setting": "[2]", "value": "1 (0.1%) n (%)"},
      {"measurement": "ALT >5x ULN, subjects", "setting": "[2]", "value": 0},
      {"measurement": "ALT >10x ULN, subjects", "setting": "[2]", "value": 0},
      {"measurement": "ALT >20x ULN, subjects", "setting": "[2]", "value": 0},
      {"measurement": "ALT >ULN, subjects n (%)", "setting": "[2]", "value": "22 (2.0%) n (%)"},
      {"measurement": "AST >3x ULN, subjects n (%)", "setting": "[2]", "value": "1 (0.1%) n (%)"},
      {"measurement": "AST >5x ULN, subjects", "setting": "[2]", "value": 0},
      {"measurement": "AST >10x ULN, subjects", "setting": "[2]", "value": 0},
      {"measurement": "AST >20x ULN, subjects", "setting": "[2]", "value": 0},
      {"measurement": "AST >ULN, subjects n (%)", "setting": "[2]", "value": "12 (1.1%) n (%)"}
    ]}
  ]
}
